# pIC50: −log10 of the molar value. Activity calls are given as the source filed them. The calls are words filed in the database; no cut-off is given here.
# What was measured:
# [1] = molecular target: T1, Fibroblast growth factor receptor 1 (Homo sapiens, UniProt P11362); experiment: Inhibition of FGFR1 in human KG1 cells assessed as reduction in ERK phosphorylation at 5 to 20 nM after 2 hrs by Western blot analysis; type: cell-based
# Target sequence in this assay (P11362 22-822 limits assumed): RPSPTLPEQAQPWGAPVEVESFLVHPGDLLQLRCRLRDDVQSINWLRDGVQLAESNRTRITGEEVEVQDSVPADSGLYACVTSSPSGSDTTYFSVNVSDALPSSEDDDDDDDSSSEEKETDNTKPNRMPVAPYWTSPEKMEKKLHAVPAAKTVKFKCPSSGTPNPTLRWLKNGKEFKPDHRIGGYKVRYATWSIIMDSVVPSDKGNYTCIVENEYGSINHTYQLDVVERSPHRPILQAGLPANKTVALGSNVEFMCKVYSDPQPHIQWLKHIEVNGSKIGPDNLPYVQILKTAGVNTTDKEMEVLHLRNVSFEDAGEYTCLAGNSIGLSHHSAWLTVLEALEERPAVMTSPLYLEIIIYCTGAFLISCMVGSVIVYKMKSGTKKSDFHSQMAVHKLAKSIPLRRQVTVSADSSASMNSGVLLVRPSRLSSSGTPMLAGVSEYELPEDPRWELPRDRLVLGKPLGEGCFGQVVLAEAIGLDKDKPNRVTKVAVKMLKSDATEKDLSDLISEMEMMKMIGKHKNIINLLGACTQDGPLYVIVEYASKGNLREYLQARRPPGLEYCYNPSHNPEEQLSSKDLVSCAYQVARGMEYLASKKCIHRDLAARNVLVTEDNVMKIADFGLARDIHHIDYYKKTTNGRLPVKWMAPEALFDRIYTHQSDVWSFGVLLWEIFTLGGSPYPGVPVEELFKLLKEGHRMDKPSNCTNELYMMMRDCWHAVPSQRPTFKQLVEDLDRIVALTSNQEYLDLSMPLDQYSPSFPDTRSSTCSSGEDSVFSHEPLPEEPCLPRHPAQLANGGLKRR
# NCI-H1581 [2] = experiment: cells; settings: Homo sapiens, NCI-H1581, 72 h
# Description: Antiproliferative activity against FGFR1 amplified human NCI-H1581 cells after 72 hrs by CCK8 or MTT assay
# [3] = molecular target: Vascular endothelial growth factor receptor 2 (Homo sapiens, UniProt P35968); experiment: Inhibition of recombinant VEGFR2 (unknown origin) using poly (Glu,Tyr) 4:1 as substrate after 60 mins by ELISA
# [4] = molecular target: Insulin-like growth factor 1 receptor (Homo sapiens, UniProt P08069); experiment: Inhibition of recombinant IGF1R (unknown origin) using poly (Glu,Tyr) 4:1 as substrate after 60 mins by ELISA
# [5] = molecular target: Proto-oncogene tyrosine-protein kinase Src (Homo sapiens, UniProt P12931); experiment: Inhibition of recombinant c-SRC (unknown origin) using poly (Glu,Tyr) 4:1 as substrate after 60 mins by ELISA
# OPM-2 = experiment: cells; settings: Homo sapiens, OPM-2, 72 h
# Description: Antiproliferative activity against FGFR3 amplified human OPM2 cells after 72 hrs by CCK8 or MTT assay
# [6] = molecular target: T2, Fibroblast growth factor receptor 2 (Homo sapiens, UniProt P21802); experiment: Inhibition of recombinant FGFR2 (unknown origin) using poly (Glu,Tyr) 4:1 as substrate after 60 mins by ELISA
# [7] = molecular target: ALK tyrosine kinase receptor (Homo sapiens, UniProt Q9UM73); experiment: Inhibition of recombinant ALK (unknown origin) using poly (Glu,Tyr) 4:1 as substrate after 60 mins by ELISA
# [8] = molecular target: Epidermal growth factor receptor (Homo sapiens, UniProt P00533); experiment: Inhibition of recombinant EGFR (unknown origin) using poly (Glu,Tyr) 4:1 as substrate after 60 mins by ELISA
# [9] = molecular target: T1, Fibroblast growth factor receptor 1; experiment: Inhibition of FGFR1 in human KG1 cells assessed as reduction in PLCgamma phosphorylation at 5 to 20 nM after 2 hrs by Western blot analysis; type: cell-based
# Target sequence in this assay (P11362 22-822 limits assumed): as above
# Homo sapiens = organism: Homo sapiens; experiment: Selectivity ratio of IC50 for recombinant VEGFR2 (unknown origin) to IC50 for recombinant FGFR1 (unknown origin)
# RT-112 = experiment: cells; settings: Homo sapiens, RT-112, 72 h
# Description: Antiproliferative activity against FGFR3 amplified human RT112 cells after 72 hrs by CCK8 or MTT assay
# [10] = molecular target: T2, Fibroblast growth factor receptor 2; experiment: Inhibition of FGFR2 in human SNU16 cells assessed as reduction in PLCgamma phosphorylation at 0.1 to 10 nM after 2 hrs by Western blot analysis; type: cell-based
# Target sequence in this assay (P21802 22-821 limits assumed): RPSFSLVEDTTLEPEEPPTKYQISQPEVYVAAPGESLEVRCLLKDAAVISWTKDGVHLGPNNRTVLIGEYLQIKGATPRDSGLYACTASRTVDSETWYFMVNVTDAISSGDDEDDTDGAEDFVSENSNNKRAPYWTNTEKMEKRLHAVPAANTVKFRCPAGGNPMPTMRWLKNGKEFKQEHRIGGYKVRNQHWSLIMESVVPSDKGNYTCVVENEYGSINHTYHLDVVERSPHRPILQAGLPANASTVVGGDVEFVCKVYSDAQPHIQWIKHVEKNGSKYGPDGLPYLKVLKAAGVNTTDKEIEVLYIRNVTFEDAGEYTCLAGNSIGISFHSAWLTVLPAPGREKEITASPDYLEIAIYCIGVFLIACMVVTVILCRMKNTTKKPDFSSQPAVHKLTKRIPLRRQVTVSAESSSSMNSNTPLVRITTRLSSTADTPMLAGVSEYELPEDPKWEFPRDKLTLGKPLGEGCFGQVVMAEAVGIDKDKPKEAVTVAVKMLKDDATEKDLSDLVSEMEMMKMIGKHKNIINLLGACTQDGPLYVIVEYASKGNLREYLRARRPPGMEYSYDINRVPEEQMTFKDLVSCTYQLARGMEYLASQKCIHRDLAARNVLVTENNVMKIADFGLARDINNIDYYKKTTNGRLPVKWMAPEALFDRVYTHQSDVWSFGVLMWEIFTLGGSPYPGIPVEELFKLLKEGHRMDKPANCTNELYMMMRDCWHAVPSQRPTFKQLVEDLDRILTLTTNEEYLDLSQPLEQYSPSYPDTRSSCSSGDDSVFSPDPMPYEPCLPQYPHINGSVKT
# Huh-7 = experiment: cells; settings: Homo sapiens, Huh-7, 72 h
# Description: Antiproliferative activity against FGF19/FGFR4 expressing human HuH7 cells after 72 hrs by CCK8 or MTT assay
# [11] = molecular target: T1, Fibroblast growth factor receptor 1; experiment: Irreversible inhibition of FGFR1 (unknown origin) at 100 times IC50 concentration using 5-FAM-KKSRGDYMTMQIG-CONH2 peptide as substrate preincubated for 30 mins followed 100 fold dilution with substrate and ATP and measured for 1 hr
# Target sequence in this assay (P11362 22-822 limits assumed): as the sequence (P11362 22-822 limits assumed) above
# [12] = molecular target: T2, Fibroblast growth factor receptor 2; experiment: Inhibition of FGFR2 in human SNU16 cells assessed as reduction in ERK phosphorylation at 0.1 to 10 nM after 2 hrs by Western blot analysis; type: cell-based
# Target sequence in this assay (P21802 22-821 limits assumed): as the sequence (P21802 22-821 limits assumed) above
# [13] = AUC in Sprague-Dawley rat at 10 mg/kg, po administered via gavage by HPLC-MS/MS analysis; type: ADME, organism-based; settings: in vivo
# [14] = Terminal half life in Sprague-Dawley rat at 10 mg/kg, po administered via gavage by HPLC-MS/MS analysis; type: ADME, organism-based; settings: in vivo, read-out: beta t1/2 (converted)
# [15] = molecular target: T3, Fibroblast growth factor receptor 3 (Homo sapiens, UniProt P22607); experiment: Inhibition of FGFR3 in human UMUC14 cells assessed as reduction in ERK phosphorylation at 1 to 100 nM after 2 hrs by Western blot analysis; type: cell-based
# Target sequence in this assay (P22607 23-806 limits assumed): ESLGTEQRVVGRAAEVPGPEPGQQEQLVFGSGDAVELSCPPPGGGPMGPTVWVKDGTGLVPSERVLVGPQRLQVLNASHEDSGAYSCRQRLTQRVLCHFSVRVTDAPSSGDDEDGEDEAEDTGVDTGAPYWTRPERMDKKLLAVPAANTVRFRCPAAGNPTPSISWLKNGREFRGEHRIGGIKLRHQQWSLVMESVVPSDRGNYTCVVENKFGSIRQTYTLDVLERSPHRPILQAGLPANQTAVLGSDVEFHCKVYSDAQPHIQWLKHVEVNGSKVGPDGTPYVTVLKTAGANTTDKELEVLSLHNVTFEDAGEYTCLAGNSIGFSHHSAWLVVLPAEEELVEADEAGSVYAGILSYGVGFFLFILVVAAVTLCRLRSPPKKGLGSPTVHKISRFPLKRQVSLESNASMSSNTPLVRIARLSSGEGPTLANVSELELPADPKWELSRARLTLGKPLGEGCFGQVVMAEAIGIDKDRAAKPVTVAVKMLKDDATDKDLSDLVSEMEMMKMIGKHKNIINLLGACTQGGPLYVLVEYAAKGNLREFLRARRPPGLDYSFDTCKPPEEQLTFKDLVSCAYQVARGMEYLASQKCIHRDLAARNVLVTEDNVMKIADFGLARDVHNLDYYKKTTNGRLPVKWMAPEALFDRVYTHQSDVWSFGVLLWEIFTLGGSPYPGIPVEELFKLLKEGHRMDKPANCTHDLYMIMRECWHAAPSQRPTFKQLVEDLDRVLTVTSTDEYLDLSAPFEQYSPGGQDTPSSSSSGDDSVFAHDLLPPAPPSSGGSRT
# [16] = molecular target: Receptor tyrosine-protein kinase erbB-2 (Homo sapiens, UniProt P04626); experiment: Inhibition of recombinant ERBB2 (unknown origin) using poly (Glu,Tyr) 4:1 as substrate after 60 mins by ELISA
# [17] = molecular target: T3, Fibroblast growth factor receptor 3; experiment: Inhibition of FGFR3 phosphorylation in human UMUC14 cells at 1 to 100 nM after 2 hrs by Western blot analysis; type: cell-based
# Target sequence in this assay (P22607 23-806 limits assumed): as above
# SNU-16 [18] = experiment: Antitumor activity against FGFR2 amplified human SNU16 cells xenografted in po dosed nude mouse assessed as tumor growth inhibition administered once daily for 21 days; type: functional, organism-based
# [19] = molecular target: T1, Fibroblast growth factor receptor 1; experiment: Inhibition of FGFR1 phosphorylation in human KG1 cells at 5 to 20 nM after 2 hrs by Western blot analysis; type: cell-based
# Target sequence in this assay (P11362 22-822 limits assumed): as the sequence (P11362 22-822 limits assumed) above
# [20] = Cmax in Sprague-Dawley rat at 10 mg/kg, po administered via gavage by HPLC-MS/MS analysis; type: ADME, organism-based; parameters: dose 10 mg/kg, route oral; settings: in vivo
# [21] = molecular target: Receptor tyrosine-protein kinase erbB-4 (Homo sapiens, UniProt Q15303); experiment: Inhibition of recombinant ERBB4 (unknown origin) using poly (Glu,Tyr) 4:1 as substrate after 60 mins by ELISA
# [22] = Toxicity in nude mouse xenografted with FGFR1 amplified human NCI-H1581 cells assessed as weight loss at 50 to 100 mg/kg, po administered once daily for 14 days relative to control; type: organism-based; settings: in vivo, 336 h
# BaF3 [23] = experiment: cells; settings: Mus musculus, BaF3, 72 h
# Description: Antiproliferative activity against mouse BAF3 cells expressing TEL-fused KDR kinase after 72 hrs by CCK8 or MTT assay
# [24] = molecular target: Hepatocyte growth factor receptor (Homo sapiens, UniProt P08581); experiment: Inhibition of recombinant c-MET (unknown origin) using poly (Glu,Tyr) 4:1 as substrate after 60 mins by ELISA
# Sequence of Hepatocyte growth factor receptor (P08581 whole entry): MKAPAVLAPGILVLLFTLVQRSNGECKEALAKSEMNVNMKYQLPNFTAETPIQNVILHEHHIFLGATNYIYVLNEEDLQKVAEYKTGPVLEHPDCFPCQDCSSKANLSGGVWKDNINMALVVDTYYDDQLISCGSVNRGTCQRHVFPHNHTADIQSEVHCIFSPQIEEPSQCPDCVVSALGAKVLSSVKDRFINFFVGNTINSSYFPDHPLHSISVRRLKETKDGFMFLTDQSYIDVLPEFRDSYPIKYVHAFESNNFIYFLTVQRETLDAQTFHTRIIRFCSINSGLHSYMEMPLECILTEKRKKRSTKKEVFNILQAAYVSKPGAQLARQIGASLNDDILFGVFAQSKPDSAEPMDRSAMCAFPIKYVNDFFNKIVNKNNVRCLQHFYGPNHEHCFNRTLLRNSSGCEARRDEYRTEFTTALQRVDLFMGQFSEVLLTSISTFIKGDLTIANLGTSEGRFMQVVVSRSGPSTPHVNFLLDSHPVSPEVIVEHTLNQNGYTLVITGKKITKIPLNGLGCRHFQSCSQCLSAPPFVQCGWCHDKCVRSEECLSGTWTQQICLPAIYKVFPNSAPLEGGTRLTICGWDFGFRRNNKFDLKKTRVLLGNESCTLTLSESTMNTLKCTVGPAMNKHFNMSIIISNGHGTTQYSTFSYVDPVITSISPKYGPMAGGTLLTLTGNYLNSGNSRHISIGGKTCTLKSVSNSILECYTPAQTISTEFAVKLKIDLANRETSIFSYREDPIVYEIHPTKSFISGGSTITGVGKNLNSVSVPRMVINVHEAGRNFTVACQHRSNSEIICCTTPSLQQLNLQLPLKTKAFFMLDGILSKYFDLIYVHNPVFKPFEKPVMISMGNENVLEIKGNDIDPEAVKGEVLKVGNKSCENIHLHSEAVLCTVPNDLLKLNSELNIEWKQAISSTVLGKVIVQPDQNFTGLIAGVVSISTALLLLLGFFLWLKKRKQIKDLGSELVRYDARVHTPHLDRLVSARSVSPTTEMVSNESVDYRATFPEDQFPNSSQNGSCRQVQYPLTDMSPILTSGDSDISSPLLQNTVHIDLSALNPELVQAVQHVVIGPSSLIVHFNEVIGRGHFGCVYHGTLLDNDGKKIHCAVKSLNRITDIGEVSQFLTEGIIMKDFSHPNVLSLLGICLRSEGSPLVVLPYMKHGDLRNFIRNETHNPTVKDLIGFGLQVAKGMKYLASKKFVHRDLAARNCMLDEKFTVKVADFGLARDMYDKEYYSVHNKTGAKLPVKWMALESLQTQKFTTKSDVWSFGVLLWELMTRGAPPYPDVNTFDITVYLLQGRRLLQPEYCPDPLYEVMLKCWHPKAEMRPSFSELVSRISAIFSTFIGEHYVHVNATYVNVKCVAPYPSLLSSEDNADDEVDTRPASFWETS
# [25] = molecular target: Platelet-derived growth factor receptor beta (Homo sapiens, UniProt P09619); experiment: Inhibition of recombinant PDGFRbeta (unknown origin) using poly (Glu,Tyr) 4:1 as substrate after 60 mins by ELISA
# [26] = molecular target: Tyrosine-protein kinase BTK (Homo sapiens, UniProt Q06187); experiment: Inhibition of recombinant BTK (unknown origin) using poly (Glu,Tyr) 4:1 as substrate after 60 mins by ELISA
# SNU-16 [27] = experiment: Antitumor activity against FGFR2 amplified human SNU16 cells xenografted in nude mouse assessed as tumor growth inhibition at 50 mg/kg, po administered once daily for 21 days relative to control; type: functional; settings: SNU-16, po, 504 h, read-out: TGI
# NCI-H1581 [28] = experiment: Antitumor activity against FGFR1 amplified human NCI-H1581 cells xenografted in nude mouse assessed as tumor growth inhibition at 100 mg/kg, po administered once daily for 14 days relative to control; type: functional; settings: 336 h, read-out: TGI
# Ephrin type-A receptor 2 = Ephrin type-A receptor 2 (Homo sapiens, UniProt P29317); experiment: Inhibition of recombinant EPHA2 (unknown origin) using poly (Glu,Tyr) 4:1 as substrate after 60 mins by ELISA
# Sequence of Ephrin type-A receptor 2 (P29317 whole entry): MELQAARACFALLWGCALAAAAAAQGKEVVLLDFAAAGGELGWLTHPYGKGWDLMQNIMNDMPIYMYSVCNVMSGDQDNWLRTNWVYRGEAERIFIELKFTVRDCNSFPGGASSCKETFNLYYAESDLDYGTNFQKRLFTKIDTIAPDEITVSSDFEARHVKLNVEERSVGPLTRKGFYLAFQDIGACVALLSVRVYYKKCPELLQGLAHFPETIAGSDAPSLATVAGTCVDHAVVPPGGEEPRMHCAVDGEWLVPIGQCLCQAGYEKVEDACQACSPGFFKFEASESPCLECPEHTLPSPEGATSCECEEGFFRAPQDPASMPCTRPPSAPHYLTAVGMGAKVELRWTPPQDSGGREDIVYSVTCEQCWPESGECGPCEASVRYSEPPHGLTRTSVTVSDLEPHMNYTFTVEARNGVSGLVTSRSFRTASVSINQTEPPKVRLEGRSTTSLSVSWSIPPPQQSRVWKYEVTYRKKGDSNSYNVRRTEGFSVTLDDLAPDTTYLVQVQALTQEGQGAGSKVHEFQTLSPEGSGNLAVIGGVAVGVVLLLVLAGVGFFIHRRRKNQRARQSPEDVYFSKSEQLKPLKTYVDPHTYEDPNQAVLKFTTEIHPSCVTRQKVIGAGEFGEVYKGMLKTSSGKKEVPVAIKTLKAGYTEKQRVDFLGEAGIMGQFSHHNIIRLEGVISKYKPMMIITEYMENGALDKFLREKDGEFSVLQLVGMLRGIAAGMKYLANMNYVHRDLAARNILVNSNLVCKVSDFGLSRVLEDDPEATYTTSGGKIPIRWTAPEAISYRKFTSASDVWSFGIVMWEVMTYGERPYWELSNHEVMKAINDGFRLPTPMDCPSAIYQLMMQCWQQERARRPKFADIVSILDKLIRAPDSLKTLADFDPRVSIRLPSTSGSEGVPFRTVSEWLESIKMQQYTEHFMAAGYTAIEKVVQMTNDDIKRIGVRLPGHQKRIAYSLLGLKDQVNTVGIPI
# SNU-16 [29] = experiment: cells; settings: Homo sapiens, SNU-16, 72 h
# Description: Antiproliferative activity against FGFR2 amplified human SNU16 cells after 72 hrs by CCK8 or MTT assay
# [30] = Toxicity in nude mouse xenografted with FGFR2 amplified human SNU16 cells assessed as weight loss at 25 to 50 mg/kg, po administered once daily for 21 days relative to control; type: organism-based; settings: in vivo, 504 h
# [31] = molecular target: Vascular endothelial growth factor receptor 1 (Homo sapiens, UniProt P17948); experiment: Inhibition of recombinant FLT1 (unknown origin) using poly (Glu,Tyr) 4:1 as substrate after 60 mins by ELISA
# NCI-H1581 [32] = experiment: Antitumor activity against FGFR1 amplified human NCI-H1581 cells xenografted in po dosed nude mouse assessed as tumor growth inhibition administered once daily for 14 days; type: functional, organism-based
# [33] = molecular target: Platelet-derived growth factor receptor alpha (Homo sapiens, UniProt P16234); experiment: Inhibition of recombinant PDGFRalpha (unknown origin) using poly (Glu,Tyr) 4:1 as substrate after 60 mins by ELISA
# [34] = molecular target: T1, Fibroblast growth factor receptor 1
# Description: Inhibition of recombinant FGFR1 (unknown origin) using poly (Glu,Tyr) 4:1 as substrate after 60 mins by ELISA
# BaF3 [35] = experiment: cells; settings: Mus musculus, BaF3, 72 h; remark: listed apart in the source
# Description: Antiproliferative activity against mouse BAF3 cells expressing TEL-fused FGFR4 kinase after 72 hrs by CCK8 or MTT assay
# [36] = molecular target: Tyrosine-protein kinase ABL1 (Homo sapiens, UniProt P00519); experiment: Inhibition of recombinant ABL (unknown origin) using poly (Glu,Tyr) 4:1 as substrate after 60 mins by ELISA
# [37] = Tmax in Sprague-Dawley rat at 10 mg/kg, po administered via gavage by HPLC-MS/MS analysis; type: ADME, organism-based; settings: in vivo
# [38] = molecular target: T3, Fibroblast growth factor receptor 3; experiment: Inhibition of FGFR3 in human UMUC14 cells assessed as reduction in PLCgamma phosphorylation at 1 to 100 nM after 2 hrs by Western blot analysis; type: cell-based
# Target sequence in this assay (P22607 23-806 limits assumed): as the sequence (P22607 23-806 limits assumed) above
# [39] = molecular target: T2, Fibroblast growth factor receptor 2; experiment: Inhibition of FGFR2 phosphorylation in human SNU16 cells at 0.1 to 10 nM after 2 hrs by Western blot analysis; type: cell-based
# Target sequence in this assay (P21802 22-821 limits assumed): as the sequence (P21802 22-821 limits assumed) above
# [40] = molecular target: Fibroblast growth factor receptor 4 (Homo sapiens, UniProt P22455); experiment: Inhibition of recombinant FGFR4 (unknown origin) using poly (Glu,Tyr) 4:1 as substrate after 60 mins by ELISA
# [41] = molecular target: T3, Fibroblast growth factor receptor 3; experiment: Inhibition of recombinant FGFR3 (unknown origin) using poly (Glu,Tyr) 4:1 as substrate after 60 mins by ELISA
compound,measurement,setting,value
C=CC(=O)N1CC[C@H](n2cc(-c3cc4cc(C)cc(OC)c4s3)c3c(N)ncnc32)C1,inhibition,[1],Active
same,pIC50,NCI-H1581 [2],9.30 to 9.52
same,pIC50,[3],6.95
same,pIC50,[4],< 6.00
same,pIC50,[5],< 6.00
same,pIC50,OPM-2,> 9.30
same,pIC50,[6],9.10
same,pIC50,[7],< 6.00
same,pIC50,[8],< 6.00
same,inhibition,[9],Active
same,Ratio IC50,Homo sapiens,> 350
same,pIC50,RT-112,> 9.30
same,inhibition,[10],Active
same,pIC50,Huh-7,> 8.82
same,inhibition,[11],Active
same,inhibition,[12],Active
same,AUC,[13],277 ng·h/mL
same,half-life,[14],1.73 h
same,inhibition,[15],Active
same,pIC50,[16],< 6.00
same,inhibition,[17],Active
same,TGI,SNU-16 [18],Dose-dependent effect
same,inhibition,[19],Active
same,Cmax,[20],77.7 ng/mL
same,pIC50,[21],< 6.00
same,Activity,[22],Non-Toxic
same,pIC50,BaF3 [23],6.53
same,pIC50,[24],< 6.00
same,pIC50,[25],< 6.00
same,pIC50,[26],< 6.00
same,inhibition in vivo at 50 mg/kg,SNU-16 [27],85.8%
same,inhibition in vivo at 100 mg/kg,NCI-H1581 [28],98.9%
same,pIC50,Ephrin type-A receptor 2,< 6.00
same,pIC50,SNU-16 [29],> 10.00
same,Activity,[30],Non-Toxic
same,pIC50,[31],< 6.00
same,TGI,NCI-H1581 [32],Dose-dependent effect
same,pIC50,[33],< 6.00
same,pIC50,[34],> 9.52
same,pIC50,BaF3 [35],> 8.34
same,pIC50,[36],< 6.00
same,Tmax,[37],2.75 h
same,inhibition,[38],Active
same,inhibition,[39],Active
same,pIC50,[40],8.28
same,pIC50,[41],8.03

# Source: ChEMBL document CHEMBL4382193, “Discovery of Potent Irreversible Pan-Fibroblast Growth Factor Receptor (FGFR) Inhibitors” (J Med Chem, 2018)
